Experiment [1] has as its target T1, human mAChRM1 (Homo sapiens, UniProt P11229).
T1 construct: host or cells: CHO-K1
T1 sequence (P11229 1-460): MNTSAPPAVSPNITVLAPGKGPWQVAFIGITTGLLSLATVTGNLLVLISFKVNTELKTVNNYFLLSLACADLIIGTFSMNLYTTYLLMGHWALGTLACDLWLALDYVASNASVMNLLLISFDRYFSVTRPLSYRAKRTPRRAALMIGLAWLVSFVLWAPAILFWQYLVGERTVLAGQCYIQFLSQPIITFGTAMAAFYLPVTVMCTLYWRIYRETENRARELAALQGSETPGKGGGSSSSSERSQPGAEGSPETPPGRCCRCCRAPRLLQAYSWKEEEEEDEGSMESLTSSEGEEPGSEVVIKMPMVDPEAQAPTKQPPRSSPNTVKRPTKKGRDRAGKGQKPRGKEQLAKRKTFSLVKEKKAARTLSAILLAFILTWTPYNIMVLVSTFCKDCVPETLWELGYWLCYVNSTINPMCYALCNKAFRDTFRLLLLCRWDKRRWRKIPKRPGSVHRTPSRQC
Description: mAChR M1 cell-based functional assay (calcium mobilization), positive allosteric modulator activity: increase in the EC20 acetylcholine response. To be noted: for Emax: PAM mode; for EC50: increase in the EC20 acetylcholine response, read-out: PAM Activity Human M1 EC50. In outline:
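Potentiation is scored as the rise in an EC20 acetylcholine-evoked calcium signal across 11-point (1:3) compound series, fitted with a four-parameter logistic equation to give EC50 and Emax. Read-out is Fluo-4 fluorescence ratio in hM1-transfected CHO-K1 cells, measured kinetically on FDSS.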
(Calcium flux is commonly read through the fluorescence of an indicator in the cells.)

Experiment [2] concerns the target T1, human mAChRM1. Description: mAChR M1 cell-based functional assay (calcium mobilization), agonist activity upon compound addition, Emax relative to acetylcholine maximum. The following applies: for Agonist Activity Human M1 EC50 / EC50: calcium mobilization upon compound addition; for Emax: relative to the maximum for acetylcholine. In outline: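 Emax is given as a percentage of the maximal acetylcholine response, from four-parameter curves of compound-evoked calcium mobilization. Human M1-transfected CHO-K1 cells carried Fluo-4 dye, and compound (11 concentrations, 1:3 steps) was applied at 4 s of a 300 s kinetic fluorescence recording.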

Each structure is given as a SMILES string.

Consider `Cn1ncc2c(-c3cc(F)c(CN4Cc5ncccc5C4=O)c(F)c3)ccc(C(C)(C)O)c21` [Compound 79, 6-(2,6-difluoro-4-(7-(2-hydroxypropan-2-yl)-1-methyl-1H-indazol-4-yl)benzyl)-6,7-dihydro-5H-pyrrolo[3,4-b]pyridin-5-one], for which, in experiment [1], the Emax (commonly the size of the effect at its maximum, as opposed to the concentration needed) is 76% and the EC50 (in general, the concentration that produces a half-maximal response) was 1210 nM. Further, the “Agonist Activity Human M1 EC50” value in experiment [2] was “inactive”.
As for `Cn1cc2c(-c3cc(F)c(CN4Cc5cccnc5C4=O)c(C4CCCC4)c3)ccc(C(C)(C)O)c2n1` [Compound 136, 6-(2-cyclopentyl-6-fluoro-4-(7-(2-hydroxypropan-2-yl)-2-methyl-2H-indazol-4-yl)benzyl)-5,6-dihydro-7H-pyrrolo[3,4-b]pyridin-7-one], in experiment [1], the Emax amounted to 86% and the EC50 was 648 nM. Moreover, in experiment [2], the EC50 was 9680 nM and the Emax is 21%.
With `Cn1cc2c(-c3ccc(CN4Cc5cccnc5C4=O)c(F)c3)ccc(C(C)(C)O)c2n1` [Compound 130, 6-(2-fluoro-4-(7-(2-hydroxypropan-2-yl)-2-methyl-2H-indazol-4-yl)benzyl)-5,6-dihydro-7H-pyrrolo[3,4-b]pyridin-7-one], in experiment [1], the Emax is 88% and the EC50 came out at 251 nM. Moreover, in experiment [2], the EC50 worked out at 7490 nM and the Emax turned out to be 12%.
As to `Cn1cc2c(-c3cc(F)c(CN4Cc5c(F)cccc5C4=O)c(F)c3)ccc(C(C)(C)O)c2n1` [Compound 106, 2-(2,6-difluoro-4-(7-(2-hydroxypropan-2-yl)-2-methyl-2H-indazol-4-yl)benzyl)-4-fluoroisoindolin-1-one], in experiment [1], the Emax was determined as 59% and the EC50 was 4680 nM. Besides, the “Agonist Activity Human M1 EC50” value in experiment [2] is “inactive”.
On to `Cn1cc2c(-c3cc(F)c(CN4Cc5ncc(Br)cc5C4=O)c(F)c3)ccc(C(C)(C)O)c2n1` [Compound 173, 3-bromo-6-(2,6-difluoro-4-(7-(2-hydroxypropan-2-yl)-2-methyl-2H-indazol-4-yl)benzyl)-6,7-dihydro-5H-pyrrolo[3,4-b]pyridin-5-one], for which, in experiment [1], the Emax was found to be 75% and the EC50 came out at 414 nM. The “Agonist Activity Human M1 EC50” value in experiment [2] was “inactive”.
Taken in the same sequence, the figures for `Cn1cc(-c2cc(F)c(CN3Cc4ncccc4C3=O)c(F)c2)c2ccc(C(C)(C)O)cc21` [Compound 40, 6-(2,6-difluoro-4-(6-(2-hydroxypropan-2-yl)-1-methyl-1H-indol-3-yl)benzyl)-6,7-dihydro-5H-pyrrolo[3,4-b]pyridin-5-one] were 73%, 2190 nM and “inactive”.
Regarding `Cc1nc2c(-c3cc(F)c(CN4Cc5ncccc5C4=O)c(F)c3)ccc(C(C)(C)O)n2n1` [Compound 115, 6-(2,6-difluoro-4-(5-(2-hydroxypropan-2-yl)-2-methyl-[1,2,4]triazolo[1,5-a]pyridin-8-yl)benzyl)-6,7-dihydro-5H-pyrrolo[3,4-b]pyridin-5-one], in experiment [1], the Emax worked out at 89% and the EC50 was 531 nM. In addition, in experiment [2], the EC50 is 8000 nM and the Emax came out at 29%.
As for `CC(C)(O)c1ccc(-c2cc(F)c(CN3Cc4ncccc4C3=O)c(F)c2)c2cccnc12` [Compound 38, 6-(2,6-difluoro-4-(8-(2-hydroxypropan-2-yl)quinolin-5-yl)benzyl)-6,7-dihydro-5H-pyrrolo[3,4-b]pyridin-5-one], in experiment [1], the Emax turned out to be 59% and the EC50 worked out at 4310 nM. Besides, the “Agonist Activity Human M1 EC50” value in experiment [2] was “inactive”.
Taken in the same sequence, the figures for `Cc1cc(-c2ccc(C(C)(C)O)c3nn(C)cc23)ccc1CN1Cc2cccc(F)c2C1=O` [Compound 161, 7-fluoro-2-(4-(7-(2-hydroxypropan-2-yl)-2-methyl-2H-indazol-4-yl)-2-methylbenzyl)isoindolin-1-one] were 80%, 521 nM and “inactive”.
With `Cn1cc2c(-c3ccc(CN4Cc5ncccc5C4=O)c(F)c3)ccc(C(C)(C)O)c2n1` [Compound 57, 6-(2-fluoro-4-(7-(2-hydroxypropan-2-yl)-2-methyl-2H-indazol-4-yl)benzyl)-6,7-dihydro-5H-pyrrolo[3,4-b]pyridin-5-one], in experiment [1], the Emax came out at 69% and the EC50 is 181 nM. Further, in experiment [2], the EC50 turned out to be 5070 nM and the Emax is 11%.
Taken in the same sequence, the figures for `[2H]C1([2H])c2ncccc2C(=O)N1Cc1c(Cl)cc(-c2ccc(C(C)(C)O)c3nn(C)cc23)cc1C1CC1` [Compound 150, 6-(2-chloro-6-cyclopropyl-4-(7-(2-hydroxypropan-2-yl)-2-methyl-2H-indazol-4-yl)benzyl)-6,7-dihydro-5H-pyrrolo[3,4-b]pyridin-5-one-7,7-d2] were 79%, 364 nM, 6720 nM and 23%.
For the compound `Cn1cc2c(-c3ccc(CN4Cc5cccc(F)c5C4=O)c(F)c3F)ccc(C(C)(C)O)c2n1` [Compound 164, 2-(2,3-difluoro-4-(7-(2-hydroxypropan-2-yl)-2-methyl-2H-indazol-4-yl)benzyl)-7-fluoroisoindolin-1-one], in experiment [1], the Emax turned out to be 71% and the EC50 turned out to be 1210 nM. The “Agonist Activity Human M1 EC50” value in experiment [2] is “inactive”.
In the case of `COCCOc1cc(-c2ccc(C(C)(C)O)c3nn(C)cc23)cc(F)c1CN1Cc2cccnc2C1=O` [Compound 126, 6-(2-fluoro-4-(7-(2-hydroxypropan-2-yl)-2-methyl-2H-indazol-4-yl)-6-(2-methoxyethoxy)benzyl)-5,6-dihydro-7H-pyrrolo[3,4-b]pyridin-7-one], in experiment [1], the Emax came out at 83% and the EC50 amounted to 61 nM. For the same compound, in experiment [2], the EC50 is 3730 nM and the Emax was 54%.
For the compound `Cn1cc2c(-c3ccc(CN4Cc5ncccc5C4=O)c(F)c3F)ccc(C(C)(C)O)c2n1` [Compound 63, 6-(2,3-difluoro-4-(7-(2-hydroxypropan-2-yl)-2-methyl-2H-indazol-4-yl)benzyl)-6,7-dihydro-5H-pyrrolo[3,4-b]pyridin-5-one], in experiment [1], the Emax worked out at 64% and the EC50 turned out to be 445 nM. Also, the “Agonist Activity Human M1 EC50” value in experiment [2] was “inactive”.
Taken in the same sequence, the figures for `Cc1cc(-c2ccc(C(C)(C)O)c3ccccc23)cc(F)c1CN1Cc2ncccc2C1=O` [Compound 72, 6-(2-fluoro-4-(4-(2-hydroxypropan-2-yl)naphthalen-1-yl)-6-methylbenzyl)-6,7-dihydro-5H-pyrrolo[3,4-b]pyridin-5-one] were 60%, 6960 nM and “inactive”.
As to `Cn1cc(-c2ccc(CN3Cc4ncccc4C3=O)c(F)c2)c(C(C)(C)O)n1` [Compound 29, 6-(2-fluoro-4-(3-(2-hydroxypropan-2-yl)-1-methyl-1H-pyrazol-4-yl)benzyl)-6,7-dihydro-5H-pyrrolo[3,4-b]pyridin-5-one], in experiment [1], the Emax was 56% and the EC50 was not below 10000 nM. For the same compound, the “Agonist Activity Human M1 EC50” value in experiment [2] was “inactive”.
On to `[2H]C1([2H])c2ncccc2C(=O)N1Cc1c(C)cc(-c2ccc(C(C)(C)O)c3nn(C([2H])([2H])[2H])cc23)cc1F` (single isomer, unassigned) [Compound 146, 6-(2-fluoro-4-(7-(2-hydroxypropan-2-yl)-2-(methyl-d3)-2H-indazol-4-yl)-6-methylbenzyl)-6,7-dihydro-5H-pyrrolo[3,4-b]pyridin-5one-7,7-d2], for which, in experiment [1], the Emax amounted to 65% and the EC50 worked out at 120 nM. Further, in experiment [2], the EC50 is not below 10000 nM and the Emax is 28%.
With `CC(C)COc1cc(-c2ccc(C(C)(C)O)cc2)cc(F)c1CN1Cc2ncccc2C1=O` [Compound 14, 6-((3-Fluoro-4′-(2-hydroxypropan-2-yl)-5-isobutoxy-[1,1′-biphenyl]-4-yl)methyl)-6,7-dihydro-5H-pyrrolo[3,4-b]pyridin-5-one], in experiment [1], the Emax turned out to be 76% and the EC50 worked out at 2320 nM. In addition, the “Agonist Activity Human M1 EC50” value in experiment [2] is “inactive”.
`CCc1cnc2c(c1)C(=O)N(Cc1c(F)cc(-c3ccc(C(C)(C)O)c4nn(C)cc34)cc1F)C2` [Compound 176, 6-(2,6-difluoro-4-(7-(2-hydroxypropan-2-yl)-2-methyl-2H-indazol-4-yl)benzyl)-3-ethyl-6,7-dihydro-5H-pyrrolo[3,4-b]pyridin-5-one]: in experiment [1], the Emax worked out at 78% and the EC50 worked out at 1090 nM. Further, in experiment [2], the “Agonist Activity Human M1 EC50” value was “inactive”.
Take `CC(C)n1cc2c(-c3cc(F)c(CN4Cc5ncccc5C4=O)c(F)c3)ccc(C(C)(C)O)c2n1` [Compound 104, 6-(2,6-difluoro-4-(7-(2-hydroxypropan-2-yl)-2-isopropyl-2H-indazol-4-yl)benzyl)-6,7-dihydro-5H-pyrrolo[3,4-b]pyridin-5-one]: in experiment [1], the Emax was 86% and the EC50 came out at 284 nM. Besides, in experiment [2], the “Agonist Activity Human M1 EC50” value is “inactive”.

(Values after US20260138978A1, “POSITIVE ALLOSTERIC MODULATORS OF THE MUSCARINIC ACETYLCHOLINE RECEPTOR M1” (Vanderbilt University, priority 2022, published 2026).)
